Tested on: mRNA expression in cardiovascular tissues
Assay: Affymetrix GeneChip mRNA expression profiling of monkey tissues (iliac vein, pulmonary vein, aorta, carotid artery, heart) after two-week oral-gavage treatment
Details: iliac vein; group avg, Vioxx without A60055

Cc1ccc(Nc2c(F)cccc2Cl)c(CC(=O)O)c1 [COX189, Lumiracoxib]
1.7 fold: XCL1 (206366_x_at) avg fold change vs control
1.1 fold: HFE (211332_x_at) avg fold change vs control | HLA-C (208812_x_at) avg fold change vs control | HLA-DRA (210982_s_at) avg fold change vs control | IFI30 (201422_at) avg fold change vs control | IFIT1 (203153_at) avg fold change vs control | IL27RA (205926_at) avg fold change vs control | JAK1 (214377_s_at) avg fold change vs control | LAIR1 (208071_s_at) avg fold change vs control | LILRB3 (210225_x_at) avg fold change vs control | PTPRC (207238_s_at) avg fold change vs control | TAPBP (208829_at) avg fold change vs control | TRGC2 (216920_s_at) avg fold change vs control
1.5 fold: HLA-DRB1 (215193_x_at) avg fold change vs control | ISGF3G (203882_at) avg fold change vs control
1.2 fold: HFE (211866_x_at) avg fold change vs control | HLA-B (209140_x_at) avg fold change vs control | HLA-C (214459_x_at) avg fold change vs control | HLA-DMA (217478_s_at) avg fold change vs control | HLA-DMB (203932_at) avg fold change vs control | HLA-DRA (208894_at) avg fold change vs control | HLA-E (200905_x_at) avg fold change vs control | HLA-F (204806_x_at) avg fold change vs control | HLA-F (221875_x_at) avg fold change vs control | ICSBP1 (204057_at) avg fold change vs control | IFITM2 (201315_x_at) avg fold change vs control | INDO (210029_at) avg fold change vs control | INPP5D (203332_s_at) avg fold change vs control | LCP2 (205270_s_at) avg fold change vs control | PTPN22 (206060_s_at) avg fold change vs control | STAT1 (AFFX-HUMISGF3A/M97935_MA_at) avg fold change vs control | TNFAIP3 (202643_s_at) avg fold change vs control | TNFSF10 (202687_s_at) avg fold change vs control | TNFSF10 (202688_at) avg fold change vs control
2.0 fold: IFI44 (214453_s_at) avg fold change vs control
1.8 fold: HLA-DQB1 (211654_x_at) avg fold change vs control | cig5 (213797_at) avg fold change vs control
1.3 fold: HFE (211863_x_at) avg fold change vs control | HLA-A (211528_x_at) avg fold change vs control | HLA-A (211529_x_at) avg fold change vs control | HLA-A (215313_x_at) avg fold change vs control | HLA-B (208729_x_at) avg fold change vs control | HLA-B (211911_x_at) avg fold change vs control | HLA-DQB1 (211656_x_at) avg fold change vs control | HLA-DRB3 (209312_x_at) avg fold change vs control | HLA-DRB6 (217362_x_at) avg fold change vs control | IL2RG (204116_at) avg fold change vs control | IRF1 (202531_at) avg fold change vs control | TNFAIP3 (202644_s_at) avg fold change vs control | TNFSF6 (210865_at) avg fold change vs control | TRGC2 (211144_x_at) avg fold change vs control | XCL1 (214567_s_at) avg fold change vs control
0.7 fold: LILRB1 (207857_at) avg fold change vs control
1.4 fold: HLA-C (216526_x_at) avg fold change vs control | HLA-DQB2 (212998_x_at) avg fold change vs control | HLA-E (217456_x_at) avg fold change vs control | IFIT2 (217502_at) avg fold change vs control | LCK (204890_s_at) avg fold change vs control | PLA2G4C (209785_s_at) avg fold change vs control | STAT1 (209969_s_at) avg fold change vs control
0.9 fold: HFE (211329_x_at) avg fold change vs control | ICAM1 (202638_s_at) avg fold change vs control | IFIT4 (204747_at) avg fold change vs control | IGF1 (209541_at) avg fold change vs control | LY86 (205859_at) avg fold change vs control | MAF (209348_s_at) avg fold change vs control | PLCL2 (216217_at) avg fold change vs control | PRG1 (201858_s_at) avg fold change vs control | PRG1 (201859_at) avg fold change vs control | TCTEL1 (201999_s_at) avg fold change vs control | VCAM1 (203868_s_at) avg fold change vs control
1.9 fold: STAT1 (AFFX-HUMISGF3A/M97935_MB_at) avg fold change vs control
0.8 fold: LYN (210754_s_at) avg fold change vs control | PCOLCE (202465_at) avg fold change vs control | TLR1 (210176_at) avg fold change vs control | TLR2 (204924_at) avg fold change vs control
0.6 fold: IGFBP4 (201508_at) avg fold change vs control
4.2 fold: IFI27 (202411_at) avg fold change vs control
1.6 fold: HLA-A (211530_x_at) avg fold change vs control | HLA-DQA1 (212671_s_at) avg fold change vs control | IL1A (208200_at) avg fold change vs control | IRF7 (208436_s_at) avg fold change vs control | LRMP (204674_at) avg fold change vs control | STAT1 (AFFX-HUMISGF3A/M97935_5_at) avg fold change vs control
1.0 fold: HHL (203020_at) avg fold change vs control | HLA-DQB1 (209823_x_at) avg fold change vs control | ICAM1 (215485_s_at) avg fold change vs control | IFITM3 (212203_x_at) avg fold change vs control | ITGB2 (202803_s_at) avg fold change vs control | KLKB1 (206541_at) avg fold change vs control | LILRB1 (211100_x_at) avg fold change vs control | LILRB3 (208594_x_at) avg fold change vs control | LY96 (206584_at) avg fold change vs control | PLSCR1 (202446_s_at) avg fold change vs control | PRC1 (218009_s_at) avg fold change vs control | SOCS3 (206360_s_at) avg fold change vs control | XLKD1 (219059_s_at) avg fold change vs control
